What was measured:
[1] = test system: spontaneously hypertensive rats; assay: Hypotensive activity in spontaneously hypertensive rats (Experiment 1, tail artery plethysmography); format: in vivo; conditions: maximum reduction after administration versus pressure before administration; oral, 3 mg/100 g body weight, suspended in 0.3% (W/V) CMC; SHR 15 weeks old, five rats per group
Description: This experiment was conducted according to the procedure described in "Spontaneously Hypertensive Rats (SHR) guidelines for Breeding, Care and Use" (published by SHR Conference) (1976) p.ll.
Five spontaneously hypertensive rats (15 weeks old, 180 mmHg or more in blood pressure) were used as one group. A test compound was suspended in 0.3% (W/V) CMC aqueous solution in a concentration of 3 mg/ml, and orally administered to the rats in a dose of 3 mg/100 g body weight. Changes in blood pressure were measured according to the method of tail artery plethysmography (see the literature cited above). The maximum reduction (mmHg) in blood pressure after the administration on the basis of the pressure before the administration is shown in Table 6.

[2] = Acute oral toxicity in mice (Experiment 2, deaths counted after 7 days); conditions: mouse, in vivo, in aqueous physiological sodium chloride, doses 300 mg/kg or further 200, 100 or 1000 mg/kg, observation for 7 days, three or four mice per group, read-out: Dose of half being died
Description: Three or four male dd-strain mice (weight 18-20g) were used as one group.
Each of the compounds was added to aqueous physiological sodium chloride, and the mixture was orally administered to the mice in a dose of 300 mg/kg or further 200, 100 or 1000 mg/kg. After the observation for 7 days, the number of deaths were counted.

Structure (SMILES) | Reduction in blood pressure (mmHg) [1] | LD50 at 168 h [2]
COc1ccc([C@H](O)[C@H](C)N2CCC3(CC2)OC(=O)Nc2ccccc23)cc1OC (relative stereo) [Compound 25, threo-l'-[2-(3,4-dimethoxyphenyl)-2-hydroxy-1-methylethyl]-(2-oxo-3,4-dihydro-2H-1,3-benzoxazine-4-spiro-4'-piperidine)] | 90 mmHg | 
COc1ccc(C(O)CN2CCC3(CC2)c2ccccc2NC(=O)N3C)cc1OC (stereo not shown) [Compound 12, l'-[2-(3,4-dimethoxyphenyl)-2-hydroxyethyl]-[3-methyl-3,4-dihydro-2(1H)-quinazolinone-4-spiro-4'-piperidine]] | 35.0 mmHg | 100 to 300 mg/kg
COc1ccc([C@@H](O)[C@H](C)N2CCC3(CC2)OC(=O)Nc2ccccc23)cc1OC (relative stereo) [Compound 26, erythro-l'-[2-(3,4-dimethoxyphenyl)-2-hydroxy-1-methylethyl]-(2-oxo-3,4-dihydro-2H-1,3-benzo-xazine-4-spiro-4'-piperidine)] | 66 mmHg | 
O=C1Nc2ccccc2C2(CCN(CC(O)c3ccc(Cl)cc3)CC2)O1 (stereo not shown) [Compound 9] | 43.7 mmHg | > 300 mg/kg
CN1C(=O)Nc2ccccc2C12CCN(CC(O)c1ccc(Cl)cc1)CC2 (stereo not shown) [Compound 10] | 20.0 mmHg | 
O=C1Nc2ccc(Cl)cc2C2(CCN(CC(O)c3ccc(Cl)cc3)CC2)O1 (stereo not shown) [Compound 8, l'-[2-(4-chlorophenyl)-2-hydroxyethyl]-(6-chloro-2-oxo-3,4-dihydro-2H-1,3-benzoxazine-4-spiro-4'-piperidine)] | 67.5 mmHg | > 300 mg/kg
CN1C(=O)Nc2ccccc2C12CCN(CC(O)c1ccccc1)CC2 (stereo not shown) [Compound 11, l'-(2-phenyl-2-hydroxyethyl)-(3-methyl-3,4-dihydro-2(lH)-quinazolinone-4-spiro-4'-piperidine)] | 47.5 mmHg | 200 mg/kg
COc1ccc(C(O)CN2CCC3(CC2)OC(=O)Nc2ccccc23)cc1OC (stereo not shown) [Compound 4, l'-[2-(3,4-dimethoxyphenyl)-2-hydroxyethyl]-(2-oxo-3,4-dihydro-2H-1,3-benzoxazine-4-spiro-4'-piperidine)] | 95.0 mmHg | > 1000 mg/kg
O=C1Nc2ccc(Cl)cc2C2(CCN(CC(O)c3ccccc3)CC2)O1 (stereo not shown) [Compound 6, l'-(2-phenyl-2-hydroxyethyl)-(6-chloro-2-oxo-3,4-dihydro-2H-1,3-benzoxazine-4-spiro-4'-piperidine)] | 66.3 mmHg | 
O=C1Nc2ccccc2C2(CCN(CC(O)c3ccccc3)CC2)O1 (stereo not shown) [Compound 2, l'-(2-phenyl-2-hydroxyethyl)-(2-oxo-3,4-dihydro-2H-1,3-benzoxazine-4-spiro-4'-piperidine)] | 46.3 mmHg | > 300 mg/kg
COc1cc(C(O)CN2CCC3(CC2)OC(=O)Nc2ccccc23)cc(OC)c1OC (stereo not shown) [Compound 32, l'-[2-(3,4,5-trimethoxyphenyl)-2-hydroxyethyl]-(2-oxo-3,4-dihydro-2H-1,3-benzoxazine-4-spiro-4'-piperidine)] | 79 mmHg | 
COc1cc(OC)c([C@@H](O)[C@H](C)N2CCC3(CC2)OC(=O)Nc2ccccc23)cc1OC (relative stereo) [Compound 31, erythro-l'-[2-(3,4,6-trimethoxyphenyl)-2-hydroxy-1-methylethyl]-(2-oxo-3,4-dihydro-2H-1,3-benzo-xazine-4-spiro-4'-piperidine)] | 75 mmHg | 
COc1cc([C@H](O)[C@H](C)N2CCC3(CC2)OC(=O)Nc2ccccc23)cc(OC)c1OC (relative stereo) [Compound 28] | 70 mmHg | 
